From patent US8937062B2, “Compositions and methods for treating, reducing, ameliorating, or preventing infections caused by antibacterial drug-resistant bacteria” (Bausch & Lomb Incorporated, priority 2007, dated 2015)
Values after ≈ are worked out from the molar mass of the structure shown.

Columns and labels:
[1] = tested on: S. pneumoniae Clinical Isolates; assay: In vitro activity against clinical isolates, sixth test, Table 7; type: cell-based; settings: 78 isolates
[2] = tested on: APC-resistant Haemophilus influenza.; assay: MIC90, agar plate dilution method (NCCLS), Table 2; type: cell-based; settings: APC-resistant Haemophilus influenza., 10 isolates
Description: (§1) The MIC90 values for this test were determined by the agar plate dilution method according to the National Committee for Clinical Laboratory Standards (“NCCLS”).

GM-resistant S. aureus = assay: MIC90, agar plate dilution method (NCCLS), Table 2; type: cell-based; settings: 10 isolates
Description: as §1

[3] = tested on: GM-resistant P. aeruginosa; assay: MIC90, agar plate dilution method (NCCLS), Table 2; type: cell-based; settings: 10 isolates
Description: as §1

[4] = tested on: PCG-resistant S. pneumoniae; assay: MIC90, agar plate dilution method (NCCLS), Table 2; type: cell-based; settings: 10 isolates
Description: as §1

OFLX-resistant S. aureus = assay: MIC90, agar plate dilution method (NCCLS), Table 2; type: cell-based; settings: 10 isolates
Description: as §1

[5] = tested on: OFLX-resistant Enterobacteriaceae; assay: MIC90, agar plate dilution method (NCCLS), Table 2; type: cell-based; settings: OFLX-resistant Enterobacteriaceae, 10 isolates
Description: as §1

[6] = tested on: methicillin-resistant S. aureus; assay: MIC90, Japanese Society of Chemotherapy guidelines (1993), Table 3; type: cell-based
Description: (§2) In a second test, compounds having Formulae IV and V, their racemic mixture, and OFLX were tested in vitro against S. aureus strains that are resistant to methicillin or penicillin. The test was conducted according to the guidelines of the Japanese Society of Chemotherapy (1993).

[7] = tested on: penicillin-resistant S. aureus; assay: as above; type: cell-based
Description: as §2

[8] = tested on: Gentamicin-resistant Pseudomonas aeruginosa; assay: In vitro anti-bacterial activity, resistant clinical isolates, fifth test, Table 6; type: cell-based
From the text: (§3) As disclosed above, most of these bacteria strains are also relevant to infections of the ear and upper respiratory tract.

[9] = tested on: Gentamicin-resistant Staphylococcus aureus; assay: as above; type: cell-based
From the text: as §3

[10] = tested on: Ofloxacin-resistant Staphylococcus aureus; assay: as above; type: cell-based
From the text: as §3

[11] = tested on: Penicillin-resistant Streptococcus pneumoniae; assay: as above; type: cell-based
From the text: as §3

[12] = tested on: Methicillin-Resistant S. aureus Isolates; assay: In vitro anti-bacterial activity, fourth test, Table 5; type: cell-based, Staphylococcus aureus
Description: In a fourth test, the anti-bacterial activity of the compound having Formula IV was tested against some methicillin-resistant S. aureus bacteria strains and compared to the anti-bacterial activity of three commercially available antibiotics: nadifloxacin (“NDFX”), ofloxacin (“OFLX”), and sparfloxacin (“SPFX”).

[13] = tested on: Ofloxacin-resistant Enterobacteriaceae; assay: organism not typed; type: cell-based; settings: Ofloxacin-resistant Enterobacteriaceae, clinical isolates, fifth test
From the text: as §3

[14] = tested on: S. pneumoniae, penicillin-intermediately resistant; assay: MIC90, broth microdilution (CLSI M7-A7), Table 4; type: cell-based; settings: 26 isolates
Description: (§4) The MIC90 values were determined according to the broth microdilution method outlined in the Clinical and Laboratory Standards Institute Approved Standard M7-A7 (2006).

[15] = tested on: E. cloacae, extended-spectrum β-lactamase positive; assay: MIC90, broth microdilution (CLSI M7-A7), Table 4; type: cell-based; settings: 15 isolates
Description: as §4

[16] = tested on: S. aureus, methicillin-resistant and ciprofloxacin-sensitive; assay: MIC90, broth microdilution (CLSI M7-A7), Table 4; type: cell-based; settings: 25 isolates
Description: as §4

[17] = tested on: H. influenzae, β-lactamase positive; assay: MIC90, broth microdilution (CLSI M7-A7), Table 4; type: cell-based; settings: 53 isolates
Description: as §4

[18] = tested on: S. epidermidis, methicillin-resistant; assay: MIC90, broth microdilution (CLSI M7-A7), Table 4; type: cell-based; settings: 64 isolates
Description: as §4

[19] = tested on: S. aureus, vancomycin-intermediately resistant; assay: MIC90, broth microdilution (CLSI M7-A7), Table 4; type: cell-based; settings: 23 isolates
Description: as §4

[20] = tested on: S. aureus, methicillin- and ciprofloxacin-resistant; assay: MIC90, broth microdilution (CLSI M7-A7), Table 4; type: cell-based; settings: 24 isolates
Description: as §4

[21] = tested on: H. influenzae, β-lactamase positive, ampicillin-resistant; assay: MIC90, broth microdilution (CLSI M7-A7), Table 4; type: cell-based; settings: 25 isolates
Description: as §4

[22] = tested on: S. aureus, vancomycin-resistant; assay: MIC90, broth microdilution (CLSI M7-A7), Table 4; type: cell-based; settings: 3 isolates
Description: as §4

[23] = tested on: S. pneumoniae, levofloxacin-resistant; assay: MIC90, broth microdilution (CLSI M7-A7), Table 4; type: cell-based; settings: 25 isolates
Description: as §4

[24] = tested on: S. pneumoniae, penicillin-resistant; assay: MIC90, broth microdilution (CLSI M7-A7), Table 4; type: cell-based; settings: 26 isolates
Description: as §4

[25] = tested on: S. aureus Clinical Isolates; assay: In vitro activity against clinical isolates, sixth test, Table 7; type: cell-based; settings: 49 isolates

N[C@@H]1CCCCN(c2c(F)cc3c(=O)c(C(=O)O)cn(C4CC4)c3c2Cl)C1 [Compound IV]
MIC90 Range [1]: 0.03 to 0.12 µg/mL | MIC90 Value [1]: 0.12 µg/mL (≈ 0.305 µM) | MIC90 Geometric Mean [2]: ≦0.06 μg/ml | MIC90 Range [2]: ≦0.06 μg/ml | MIC90 Value [2]: ≦0.06 μg/ml | MIC90 Geometric Mean (GM-resistant S. aureus): 0.65 µg/mL (≈ 1.65 µM) | MIC90 Range (GM-resistant S. aureus): ≦0.006-8 μg/ml | MIC90 Value (GM-resistant S. aureus): 4 µg/mL (≈ 10.2 µM) | MIC90 Geometric Mean [3]: 5.28 µg/mL (≈ 13.4 µM) | MIC90 Range [3]: 0.5 to 32 µg/mL | MIC90 Value [3]: 32 µg/mL (≈ 81.3 µM) | MIC90 Geometric Mean [4]: 0.10 µg/mL (≈ 0.254 µM) | MIC90 Range [4]: ≦0.06-0.13 μg/ml | MIC90 Value [4]: 0.13 µg/mL (≈ 0.33 µM) | MIC90 Geometric Mean (OFLX-resistant S. aureus): 2.14 µg/mL (≈ 5.43 µM) | MIC90 Range (OFLX-resistant S. aureus): 0.5 to 8 µg/mL | MIC90 Value (OFLX-resistant S. aureus): 8 µg/mL (≈ 20.3 µM) | MIC90 Geometric Mean [5]: 11.3 µg/mL (≈ 28.7 µM) | MIC90 Range [5]: 4 to 32 µg/mL | MIC90 Value [5]: 16 µg/mL (≈ 40.6 µM) | MIC90 ([6]; S. aureus (ATCC 33591)): 0.025 µg/mL (≈ 0.0635 µM) | MIC90 ([6]; S. aureus (ATCC 33592)): 0.012 µg/mL (≈ 0.0305 µM) | MIC90 ([6]; S. aureus (ATCC 33593)): 0.025 µg/mL (≈ 0.0635 µM) | MIC90 ([6]; S. aureus (No. 395)): 0.025 µg/mL (≈ 0.0635 µM) | MIC90 ([6]; S. aureus (No. 415)): 0.012 µg/mL (≈ 0.0305 µM) | MIC90 ([6]; S. aureus (No. 419)): 0.025 µg/mL (≈ 0.0635 µM) | MIC90 ([6]; S. aureus (No. 420)): 0.012 µg/mL (≈ 0.0305 µM) | MIC90 ([6]; S. aureus (No. 421)): 0.025 µg/mL (≈ 0.0635 µM) | MIC90 ([7]; S. aureus (ATCC 11632)): 0.025 µg/mL (≈ 0.0635 µM) | MIC90 ([7]; S. aureus (ATCC 13301)): 0.012 µg/mL (≈ 0.0305 µM) | MIC90 [8]: 32 µg/mL (≈ 81.3 µM) | MIC90 [9]: 4 µg/mL (≈ 10.2 µM) | MIC90 [10]: 8 µg/mL (≈ 20.3 µM) | MIC90 [11]: 0.13 µg/mL (≈ 0.33 µM) | MIC90 ([12]; Staphylococcus aureus (ATCC 33591)): 0.012 µg/mL (≈ 0.0305 µM) | MIC90 ([12]; Staphylococcus aureus (ATCC 33592)): 0.05 µg/mL (≈ 0.127 µM) | MIC90 ([12]; Staphylococcus aureus (ATCC 33593)): 0.012 µg/mL (≈ 0.0305 µM) | MIC90 ([12]; Staphylococcus aureus (No. 395)): 0.006 µg/mL (≈ 0.0152 µM) | MIC90 ([12]; Staphylococcus aureus (No. 415)): 0.05 µg/mL (≈ 0.127 µM) | MIC90 ([12]; Staphylococcus aureus (No. 419)): 0.1 µg/mL (≈ 0.254 µM) | MIC90 ([12]; Staphylococcus aureus (No. 420)): 0.1 µg/mL (≈ 0.254 µM) | MIC90 ([12]; Staphylococcus aureus (No. 421)): 0.2 µg/mL (≈ 0.508 µM) | MIC90 [13]: 16 µg/mL (≈ 40.6 µM) | MIC90 Geometric Mean [14]: 0.120 µg/mL (≈ 0.305 µM) | MIC90 Range [14]: 0.06 to 2 µg/mL | MIC90 Value [14]: 0.12 µg/mL (≈ 0.305 µM) | MIC90 Geometric Mean [15]: 4.595 µg/mL (≈ 11.7 µM) | MIC90 Value [15]: >8 µg/mL | MIC90 Geometric Mean [16]: 0.033 µg/mL (≈ 0.0838 µM) | MIC90 Range [16]: 0.015 to 1 µg/mL | MIC90 Value [16]: 0.06 µg/mL (≈ 0.152 µM) | MIC90 Geometric Mean [17]: 0.027 µg/mL (≈ 0.0686 µM) | MIC90 Range [17]: 0.015 to 0.06 µg/mL | MIC90 Value [17]: 0.03 µg/mL (≈ 0.0762 µM) | MIC90 Geometric Mean [18]: 0.397 µg/mL (≈ 1.01 µM) | MIC90 Value [18]: 8 µg/mL (≈ 20.3 µM) | MIC90 Geometric Mean [19]: 0.652 µg/mL (≈ 1.66 µM) | MIC90 Range [19]: 0.03 to 2 µg/mL | MIC90 Value [19]: 2 µg/mL (≈ 5.08 µM) | MIC90 Geometric Mean [20]: 1.542 µg/mL (≈ 3.92 µM) | MIC90 Range [20]: 0.5 to 8 µg/mL | MIC90 Value [20]: 8 µg/mL (≈ 20.3 µM) | MIC90 Geometric Mean [21]: 0.044 µg/mL (≈ 0.112 µM) | MIC90 Range [21]: 0.015 to 0.25 µg/mL | MIC90 Value [21]: 0.12 µg/mL (≈ 0.305 µM) | MIC90 Geometric Mean [22]: 1.587 µg/mL (≈ 4.03 µM) | MIC90 Range [22]: 1 to 4 µg/mL | MIC90 Geometric Mean [23]: 1.028 µg/mL (≈ 2.61 µM) | MIC90 Range [23]: 0.5 to 8 µg/mL | MIC90 Value [23]: 2 µg/mL (≈ 5.08 µM) | MIC90 Geometric Mean [24]: 0.108 µg/mL (≈ 0.274 µM) | MIC90 Range [24]: 0.06 to 0.12 µg/mL | MIC90 Value [24]: 0.12 µg/mL (≈ 0.305 µM) | MIC90 Range [25]: 0.015 to 2 µg/mL | MIC90 Value [25]: 0.25 µg/mL (≈ 0.635 µM)
